Assay results published in article PMC5691623 (Viruses, 2017).

Key:
[1] = tested on: IAV; test: microbe, parasite or virus in culture; assay type: cell-based, Human influenza A/Udorn/307/1972 (H3N2); details: for EC50: Influenza A virus, RPE
[2] = in vitro; details: human
[3] = tested on: IAV-infected RPE and A549 cells; assay type: cell-based, human
[4] = design: method as in earlier work; details: cited from earlier work
[5] = tested on: IAV-infected RPE cells; assay type: cell-based, human
[6] = tested on: mock-infected RPE cells; details: human
[7] = tested on: MERS-CoV; assay type: cell-based; details: Vero cells, 24 hpi, moi 0.1
[8] = tested on: vRNA-transfected RPE cells; assay type: cell-based, human
[9] = tested on: IAV-infected RPE cells; assay type: cell-based, human; remark: listed apart in the source
[10] = tested on: RPE or A549 cells treated with bacterial lipopolysaccharides (LPS); test: Death of cells treated with bacterial LPS; assay type: cell-based, human; details: LPS 10 µg/ml

Row | SMILES | effect on viral replication [1] | EC50 [1] | CC50 [2] | rescue from ABT-263-mediated premature death [3] | other results
1 | Cc1c(-c2ccc(N3CCc4cccc(C(=O)Nc5nc6ccccc6s5)c4C3)nc2C(=O)O)cnn1CC12CC3CC(CC(C3)C1)C2 [A-1331852] | limited viral replication | < 10 nM | 50 nM | – | –
2 | CN(C)CC[C@H](CSc1ccccc1)Nc1ccc(S(=O)(=O)NC(=O)c2ccc(N3CCN(Cc4ccccc4-c4ccc(Cl)cc4)CC3)cc2)cc1[N+](=O)[O-] [ABT-737] | limited viral replication | 280 nM | 350 nM | – | –
3 | CC1(C)CCC(CN2CCN(c3ccc(C(=O)NS(=O)(=O)c4ccc(NCC5CCOCC5)c([N+](=O)[O-])c4)c(Oc4cnc5[nH]ccc5c4)c3)CC2)=C(c2ccc(Cl)cc2)C1 [ABT-199] | – | 3710 nM | 4640 nM | – | –
4 | COC1=CC(c2cc3ccccc3[nH]2)=N/C1=C\c1[nH]c(C)cc1C [Obatoclax, obatoclax] | – | – | – | rescued | –
5 | Nc1ccn([C@@H]2O[C@H](CO)[C@@H](O)C2(F)F)c(=O)n1 [gemcitabine] | – | – | – | rescued | –
6 | O=C(O)[C@H]1C2CCC(CC2)[C@@H]1Nc1nc(-c2c[nH]c3ncc(F)cc23)ncc1F [JNJ-872] | – | – | – | rescued | –
7 | C[C@H]1C/C=C/Cc2cccc(O)c2C(=O)O[C@@H](C/C=C/NC(=O)C#Cc2ccccc2)C[C@H]1O [SaliPhe, Saliphenylhalamide] | – | – | – | rescued | –
8 | CN(C)CC#Cc1ccc(OCCCc2sc(N3CCc4cccc(C(=O)Nc5nc6ccccc6s5)c4C3)nc2C(=O)O)c(F)c1 [A-1155463] | limited viral replication | < 10 nM | 60 nM | – | side effect in animals [4]: reversible thrombocytopenia
9 | CC1(C)CCC(c2ccc(Cl)cc2)=C(CN2CCN(c3ccc(C(=O)NS(=O)(=O)c4ccc(N[C@H](CCN5CCOCC5)CSc5ccccc5)c(S(=O)(=O)C(F)(F)F)c4)cc3)CC2)C1 [ABT-263] | limited viral replication | 80 nM | 800 nM | – | time post infection at which premature death of infected cells was observed [5]: ≤ 12 h; ΔAUC CTG [5]: 9.9; time without toxicity in mock-infected cells [6]: at least 36 h; effect on MERS-CoV replication [7]: blocks MERS-CoV replication; PFU/ml [1]: 0.01x10^6 PFU/ml; Virus titer FC (log10) [1]: 2.0±0.2 log10; death of vRNA-transfected cells [8]: kills vRNA-transfected (160 ng) but not mock-transfected RPE cells; ΔAUC CTxG [9]: 2.5; death of LPS-treated cells [10]: did not accelerate the death
